These results are taken from PubChem BioAssay AID743124 (Broad Institute, 2013).

The structures appear in SMILES notation. Where “and” joins values, the source holds several entries; their conditions need not be identical. Equal entries are not always repeated. Records with an inconclusive call do not appear. Calls of active or inactive are those of the source.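 How the source made its calls: active means compounds whose fitted half-maximal concentration is at most twice their own top valid dose, with signal falling; inconclusive means flat curve with 30 to 70% inhibition, or poor fit; inactive means the rest.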 Where only a bound is given, the exact number is not on record here.

System in the first assay: not listed separately
Nature of the assay: inhibitors of CFW-induced Rlm1 reporter, dose response, S. cerevisiae, lacZ luminescence, calcofluor white, dry powder (AID 743124). The note with it: S. cerevisiae Rlm1-lacZ reporter, CFW-induced, luminescence 4 h; at 35 µM (top of the series).
`Cc1ccc(OCCn2cnc3ccccc32)cc1`: the activity change, negative = inhibition was 15.9% (inactive). Still for that read-out and setting: under `CCOC(=O)c1c(NC(=O)CNCCN(C)C)sc(C)c1-c1ccccc1` stands -8.38% (inactive); under `CCOC(=O)c1c(-c2ccc(F)cc2)csc1NC(=O)CN1CCN(C)CC1`, -6.7% (inactive). Same read-out and setting: to `COC(=O)C1=C(C)N(Cc2ccc(Cl)cc2)C(=S)NC1c1ccc(Br)cc1` (centres undefined) belongs 0.264% (inactive); to `COC(=O)C1=C(C)N(Cc2ccccc2)C(=S)NC1c1ccc(Br)cc1` (centres undefined), 9.97% (inactive); to `Cc1ccccc1OCCn1c(=S)[nH]c2ccccc21`, -14.7% (inactive). In the case of `CCOC(=O)c1c(-c2ccc(OC)cc2)csc1NC(=O)CN(C)CC(=O)N(C)C`, the activity change, negative = inhibition is -25% (inactive). Same read-out and setting: under `CCOC(=O)c1c(-c2ccc(F)cc2)csc1NC(=O)CN1CCN(CC)CC1` stands -5.43% (inactive); under `CCOC(=O)c1c(-c2ccc(C(C)(C)C)cc2)csc1NC(=O)CN1CCN(CC)CC1`, -28.1% (inactive). The same measure, in the same setting: under `Cc1ccc(OCCn2c(C)nc3ccccc32)cc1` stands 13.6% (inactive); under `COC(=O)C1=C(C)N(Cc2ccc(Br)cc2)C(=S)NC1c1ccc(OC)cc1` (centres undefined), 1.69% (inactive); under `O=c1[nH]c2ccccc2n1CCOc1ccccc1`, 6.62% (inactive) and -10.4% (inactive). Still for that read-out and setting: to `Cc1ccc2c(c1)[nH]c(=S)n2CCOc1ccccc1` belongs -5.38% (inactive).

The next assay relates to S. cerevisiae Rlm1-lacZ reporter, CFW-induced, luminescence 4 h. The assay is described as above.
Details: not given
In general, AC50 refers to the concentration giving half of the maximal activity seen. `Cc1ccc(OCCn2c(SCCO)nc3ccccc32)c(C(C)C)c1`: the AC50 is > 70 µM (inactive). The same measure, in the same setting: to `COC(=O)C1=C(C)N(Cc2ccc(F)cc2)C(=S)NC1c1cccc(F)c1` (centres undefined) belongs > 70 µM (inactive). The same measure, in the same setting: to `Fc1cccc2c1[nH]c(=S)n2CCOc1ccccc1` belongs > 70 µM (inactive); to `CCOC(=O)c1c(-c2ccc(-c3ccccc3)cc2)csc1NC(=O)CNCCN(C)C`, > 70 µM (inactive). On the same count and under the same terms, under `CCOC(=O)c1c(NC(=O)CN2CCN(C)CC2)sc(C)c1-c1ccc(C)cc1` stands > 70 µM (inactive); under `Fc1ccccc1OCCn1c(=S)[nH]c2ccccc21`, > 70 µM (inactive); under `Cc1ccc(C(C)C)c(OCCn2c(=S)[nH]c3ccccc32)c1`, > 70 µM (inactive). With `S=c1[nH]c2ccccc2n1CCOc1ccccc1`, the AC50 was > 70 µM (inactive). Still for that read-out and setting: to `S=c1[nH]c2cccc(Cl)c2n1CCOc1ccccc1` belongs 26.7 µM; to `COC(=O)C1=C(C)N(Cc2ccc(Br)cc2)C(=S)NC1c1ccc(F)cc1` (centres undefined), > 70 µM (inactive); to `Cc1ccc(OCCn2c(=S)[nH]c3ccccc32)cc1`, 33.2 µM.
